Structures can show the parent of a compound that is named as a salt.
Assays:
balb/c mouse hepatocytes = assay: Hepatocyte stability, balb/c mouse; assay type: in vitro ADME; settings: 2 μM, 0.5 million cells/ml
Protocol: (§1) In this study, human, cynomolgus monkey, beagle dog, wistar hannover rat, and balb/c mouse hepatocyle stability was determined.

beagle dog hepatocytes = assay: Hepatocyte stability, beagle dog; assay type: in vitro ADME; settings: 2 μM, 0.5 million cells/ml
Protocol: as §1

[1] = Plasma stability, human plasma (K2EDTA); assay type: in vitro ADME; settings: human plasma, 2 μM, anti-coagulant K2-EDTA; for % Remaining at T120: 120 min
CYP2C9 = CYP2C9 (Homo sapiens, UniProt P11712); assay: CYP450 panel inhibition in human liver microsomes, 2C9 (diclofenac); settings: for CYP-2C9 (Diclofenac) mean percentage CYP inhibition: human liver microsomes, 10 μM, substrate diclofenac
CYP2C9, sequence (P11712 whole entry): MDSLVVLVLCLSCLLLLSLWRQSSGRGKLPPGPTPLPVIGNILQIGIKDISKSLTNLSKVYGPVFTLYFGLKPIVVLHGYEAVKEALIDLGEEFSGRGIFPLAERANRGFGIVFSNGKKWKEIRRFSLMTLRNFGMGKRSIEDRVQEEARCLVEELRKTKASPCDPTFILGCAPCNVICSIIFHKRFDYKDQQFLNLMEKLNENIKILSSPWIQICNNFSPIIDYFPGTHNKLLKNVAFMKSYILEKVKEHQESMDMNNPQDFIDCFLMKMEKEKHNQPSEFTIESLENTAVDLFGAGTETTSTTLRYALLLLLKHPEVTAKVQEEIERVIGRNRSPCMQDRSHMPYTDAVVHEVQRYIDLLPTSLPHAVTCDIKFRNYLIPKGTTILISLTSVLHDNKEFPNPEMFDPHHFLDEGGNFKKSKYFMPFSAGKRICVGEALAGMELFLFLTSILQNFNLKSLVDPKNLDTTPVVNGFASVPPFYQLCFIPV
From the text: The quenched samples were stored refrigerated.

[2] = Plasma stability, mouse plasma (Balb/c; Table 5 head CD-1 Mouse); assay type: in vitro ADME; settings: balb/c plasma, 2 μM, anti-coagulant K2-EDTA; for % Remaining at T120: 120 min
[3] = Plasma stability, beagle dog plasma (K2EDTA); assay type: in vitro ADME; settings: beagle dog plasma, 2 μM, anti-coagulant K2-EDTA; for % Remaining at T120: 120 min
Caco-2 cells = assay: Caco-2 bidirectional permeability (absorption & efflux); settings: Example 47
human hepatocytes = assay: Hepatocyte stability, human; assay type: in vitro ADME; settings: 2 μM, 0.5 million cells/ml; for % Remaining At T120 / T1/2: 120 min
Protocol: as §1

[4] = system: cynomolgus monkey hepatocytes; assay: Hepatocyte stability, cynomolgus monkey; assay type: in vitro ADME; settings: 2 μM, 0.5 million cells/ml
Protocol: as §1

[5] = system: wistar hannover rat hepatocytes; assay: Hepatocyte stability, wistar hannover rat; assay type: in vitro ADME; settings: 2 μM, 0.5 million cells/ml
Protocol: as §1

| Structure (SMILES) | % Remaining At T120 (balb/c mouse hepatocytes) [%] | CLint (L/hr/kg) (balb/c mouse hepatocytes) [L/h/kg] | CLint (mL/min/kg) (balb/c mouse hepatocytes) | T1/2 (balb/c mouse hepatocytes) [h] | % Remaining At T120 (beagle dog hepatocytes) [%] | CLint (L/hr/kg) (beagle dog hepatocytes) [L/h/kg] | CLint (mL/min/kg) (beagle dog hepatocytes) | T1/2 (beagle dog hepatocytes) [h] | T1/2 ([1]; 10 to 120 min) [h] | % Remaining at T120 [1] [%] | CYP-2C9 (Diclofenac) mean percentage CYP inhibition (CYP2C9) [%] | T1/2 [2] [h] | % Remaining at T120 [2] [%] | T1/2 [3] [h] | % Remaining at T120 [3] [%] | A − B Permeability Ranking (Caco-2 cells) | Mean Efflux Ratio (Caco-2 cells) | % Remaining At T120 (human hepatocytes) [%] | % Remaining At T120 [4] [%] | % Remaining At T120 [5] [%] | also measured |
| --- | --- | --- | --- | --- | --- | --- | --- | --- | --- | --- | --- | --- | --- | --- | --- | --- | --- | --- | --- | --- | --- |
| CCS(=O)(=O)Nc1cccc(Cc2c(CN(C)C)c3ccc(OC(=O)N(C)C)cc3oc2=O)c1F [Compound 120] | 71.4 | 3.98 | 66.3 | 4.12 | 49.5 | 3.78 | 63.0 | 1.97 | >2 | 123.8 | 11.1 | 238.68 | 94.2 | >2 | 100.9 | Higher | 0.567 | 47.4 | 31.6 | 32.0 | Mean Papp A − B (10^−6 cm/s) (Caco-2 cells): 21.9 10^−6 cm/s; Mean Papp B − A (10^−6 cm/s) (Caco-2 cells): 12.4 10^−6 cm/s; CLint (L/hr/kg) (human hepatocytes): 2.02 L/h/kg; CLint (mL/min/kg) (human hepatocytes): 33.6 mL/min/kg; T1/2 (human hepatocytes): 1.85 h; CLint (L/hr/kg) [4]: 4.67 L/h/kg; CLint (mL/min/kg) [4]: 77.8 mL/min/kg; T1/2 [4]: 1.2 h; CLint (L/hr/kg) [5]: 3.07 L/h/kg; CLint (mL/min/kg) [5]: 51.2 mL/min/kg; T1/2 [5]: 1.22 h |
| CNS(=O)(=O)Nc1cccc(Cc2c(CN(C)C)c3cc(F)c(OC(=O)N(C)C)cc3oc2=O)c1F [Compound 25] | 72.0 | 3.88 | 64.7 | 4.22 | 62.7 | 2.51 | 41.9 | 2.97 | >2 | 112.1 | 28.0 | >2 | 99.9 | 9.88 | 90.1 | Higher | 3.82 | 99.9 | 80.4 | 60.0 | Mean Papp A − B (10^−6 cm/s) (Caco-2 cells): 4.39 10^−6 cm/s; Mean Papp B − A (10^−6 cm/s) (Caco-2 cells): 16.7 10^−6 cm/s; CLint (L/hr/kg) (human hepatocytes): 0.00218 L/h/kg; CLint (mL/min/kg) (human hepatocytes): 0.0363 mL/min/kg; CLint (L/hr/kg) [4]: 0.886 L/h/kg; CLint (mL/min/kg) [4]: 14.8 mL/min/kg; T1/2 [4]: 6.33 h; CLint (L/hr/kg) [5]: 1.38 L/h/kg; CLint (mL/min/kg) [5]: 23.0 mL/min/kg; T1/2 [5]: 2.72 h |
| CNS(=O)(=O)Nc1cccc(Cc2c(CN3CCNCC3)c3cc(F)c(OC(=O)N(C)C)cc3oc2=O)c1F [Compound 134] | 70.2 | 4.18 | 69.7 | 3.92 | 74.7 | 1.57 | 26.1 | 4.75 | >2 | 107.8 | 20.5 | 46.85 | 100.2 | 10.4 | 89.9 | Higher | 2.01 | 94.7 | 78.5 | 59.8 | Mean Papp A − B (10^−6 cm/s) (Caco-2 cells): 3.99 10^−6 cm/s; Mean Papp B − A (10^−6 cm/s) (Caco-2 cells): 8.08 10^−6 cm/s; CLint (L/hr/kg) (human hepatocytes): 0.148 L/h/kg; CLint (mL/min/kg) (human hepatocytes): 2.46 mL/min/kg; T1/2 (human hepatocytes): 25.35 h; CLint (L/hr/kg) [4]: 0.980 L/h/kg; CLint (mL/min/kg) [4]: 16.3 mL/min/kg; T1/2 [4]: 5.73 h; CLint (L/hr/kg) [5]: 1.39 L/h/kg; CLint (mL/min/kg) [5]: 23.1 mL/min/kg; T1/2 [5]: 2.7 h |
| CCS(=O)(=O)Nc1cccc(Cc2c(CN3CCNCC3)c3cc(Cl)c(OC(=O)N(C)C)cc3oc2=O)c1Cl [Compound 257, 6-chloro-3-(2-chloro-3-(ethylsulfonamido)benzyl)-2-oxo-4-(piperazin-1-ylmethyl)-2H-chromen-7-yl dimethylcarbamate hydrochloride] | 66.7 |  |  |  | 47.8 |  |  |  |  | 96.3 |  |  | 87.5 |  | 100.9 | Higher |  | 89.1 | 62.8 | 45.4 | half-life at 2 μM ([1]; pH 7.4, 10 to 120 min, read-out: T1/2): 173 h; inhibition at 30 min, 10 µM (CYP2C9; human, microsomes, pH 7.4): 53.7%; half-life at 2 μM ([2]; mouse, pH 7.4, read-out: T1/2): 9.77 h; half-life at 2 μM ([3]; pH 7.4, read-out: T1/2): > 2 h |

Reference: patent US20250179057A1, “MEK IMMUNE ONCOLOGY INHIBITORS AND THERAPEUTIC USES THEREOF” (Immuneering Corporation, priority 2022, published 2025)
